Assay results: patent US20180153995A1, “USE OF ANTIMICROBIAL POLYMERS FOR RE-SENSITIZATION OF MICROORGANISMS UPON EMERGENCE OF RESISTANCE TO ANTI-MICROBIAL AGENTS” (Technion Research & Development Foundation Limited, priority 2008, published 2018)
Where two headings read alike, the source gives them in different places.

How the values were obtained:
S. maltophila 748 = assay: Antibiotic MIC by microdilution with or without sub-MIC polymer; format: cell-based, Stenotrophomonas maltophila
S. aureus 43300 = assay: as above; format: cell-based, Staphylococcus aureus
S. aureus 17314 = assay: as above; format: cell-based, Staphylococcus aureus
S. aureus 15877 = assay: as above; format: cell-based, Staphylococcus aureus
Method: MICs were determined by microdilution susceptibility testing in 96-well plates (by Nunc) using inocula of 10^5 bacteria per ml. Cell populations were evaluated by optical density measurements at 620 nm and were calibrated against a set of standards. Hundred (100) μl of a bacterial suspension were added to 100 μl of culture medium (control) or to 100 μl of culture medium containing various polymer concentrations in 2-fold serial dilutions. Inhibition of proliferation was determined by optical density measurements at 620 nm after an incubation period of 24 hours at 37° C.
MICs were determined by microdilution susceptibility testing in 96-well plates (Nunc) using inocula of 10^5 bacteria per ml. One hundred (100) μl of a bacterial suspension were added to 100 μl of culture medium (control) or to 100 μl of culture medium containing various antibiotic and C12(5-ene)KKNC12KNH2 (SEQ ID NO: 2) concentrations in 2-fold serial dilutions. Inhibition of proliferation was determined by optical density measurements at 620 nm after an incubation period of 24 hours at 37° C.

MRSA 15903 = assay: microbe, parasite or virus in culture; format: cell-based, Staphylococcus aureus
In short: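 Two-agent combinations tested against MRSA 15903; FIC index = A/MICA + B/MICB, using MICs in combination versus alone. Below 0.5 read as clear re-sensitizing, 0.5–4 marginal or null, above 4 antagonism.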

[1] = +¼ MIC (1.6 μM) C12(5-ene)KKNC12KNH2
[2] = +⅓ MIC (2.1 μM) C12(5-ene)KKNC12KNH2

O=C(O)c1cn(C2CC2)c2cc(N3CCNCC3)c(F)cc2c1=O [Ciprofloxacin, ciprofloxacin]
256 µg/mL: MIC (MRSA 15903; Staphylococcus aureus, MRSA, 24 h, MRSA 15903, antibiotic alone (Table 22), read-out: MIC, Alone)
4 µg/mL: Antibiotic MIC (S. aureus 15877; [1]) | Antibiotic MIC (S. aureus 15877; +½ MIC (3.12 μM) C12(5-ene)KKNC12KNH2) | Antibiotic MIC (S. aureus 15877; [2]) | Antibiotic MIC (S. aureus 15877; no polymer (None), Table 8) | MIC (MRSA 15903; S. aureus CI-15903, +polymer (⅓ MIC) C12(5-ene)KKNC12KNH2)
16 µg/mL: Antibiotic MIC (S. aureus 17314; S. aureus 17314, +½ MIC (3.12 μM) C16(9-ene)KKNC12KNH2) | MIC (MRSA 15903; MRSA 15903, +⅓ polymer MIC (2.1 μM) NC12(KNC12K)2NH2)
0.25 µg/mL: Antibiotic MIC (S. aureus 43300; [1]) | Antibiotic MIC (S. aureus 43300; +¼ MIC (1.6 μM) C16(9-ene)KKNC12KNH2) | Antibiotic MIC (S. aureus 43300; +½ MIC (3.12 μM) C12KKNC12KNH2) | Antibiotic MIC (S. aureus 43300; +⅓ MIC (2.1 μM) C16(9-ene)KKNC12KNH2) | MIC (MRSA 15903; S. aureus CI-15903, +polymer (½ MIC) C12(5-ene)KKNC12KNH2)
0.5 µg/mL: Antibiotic MIC (S. aureus 43300; +¼ MIC (1.6 μM) C12KKNC12KNH2) | Antibiotic MIC (S. aureus 43300; +⅓ MIC (2.1 μM) C12KKNC12KNH2)
64 µg/mL: Antibiotic MIC (S. aureus 17314; S. aureus 17314, +¼ MIC (1.6 μM) C14(9-ene)KKNC12KNH2) | Antibiotic MIC (S. aureus 17314; S. aureus 17314, +½ MIC (3.12 μM) C12K(KNC12K)2NH2) | Antibiotic MIC (S. aureus 17314; S. aureus 17314, +½ MIC (3.12 μM) C12KKNC12KNH2) | Antibiotic MIC (S. aureus 17314; S. aureus 17314, +½ MIC (3.12 μM) C14(9-ene)KKNC12KNH2) | Antibiotic MIC (S. aureus 17314; S. aureus 17314, +⅓ MIC (2.1 μM) C12K(KNC12K)2NH2) | Antibiotic MIC (S. aureus 17314; S. aureus 17314, +⅓ MIC (2.1 μM) C12KKNC12KNH2) | Antibiotic MIC (S. aureus 17314; S. aureus 17314, +⅓ MIC (2.1 μM) C14(9-ene)KKNC12KNH2) | Antibiotic MIC (S. aureus 17314; S. aureus 17314, no polymer (None), Table 9) | Antibiotic MIC (S. aureus 17314; S. aureus 17314, no polymer (None), Table 10) | MIC, ½ + MIC OAK (MRSA 15903; MRSA 15903, with C12K(KNC10K)3NH2 (SEQ ID NO: 10) at ½ of its MIC)
0.125 µg/mL: Antibiotic MIC (S. aureus 43300; +½ MIC (3.12 μM) C16(9-ene)KKNC12KNH2) | Antibiotic MIC (S. aureus 43300; [2])
0.13 to 0.25 µg/mL: Antibiotic MIC (S. aureus 43300; +½ MIC (3.12 μM) C12K(KNC12K)2NH2)
2 µg/mL: Antibiotic MIC (S. maltophila 748; +½ MIC (3.12 μM) C12K(KNC12K)3NH2)
4 to 8 µg/mL: Antibiotic MIC (S. maltophila 748; +⅓ MIC (2.1 μM) C12K(KNC12K)3NH2)
32 µg/mL: Antibiotic MIC (S. aureus 17314; S. aureus 17314, +¼ MIC (1.6 μM) C16(9-ene)KKNC12KNH2) | Antibiotic MIC (S. aureus 17314; S. aureus 17314, +⅓ MIC (2.1 μM) C16(9-ene)KKNC12KNH2) | MIC (MRSA 15903; MRSA 15903, +¼ polymer MIC (1.6 μM) NC12(KNC12K)2NH2) | MIC (MRSA 15903; S. aureus CI-15903, +polymer (¼ MIC) C12(5-ene)KKNC12KNH2)
8 µg/mL: Antibiotic MIC (S. maltophila 748; +¼ MIC (1.6 μM) C12K(KNC12K)3NH2) | Antibiotic MIC (S. maltophila 748; no polymer (None), Table 13)
1 µg/mL: MIC (MRSA 15903; MRSA 15903, +½ polymer MIC (3.1 μM) NC12(KNC12K)2NH2)
128 µg/mL: Antibiotic MIC (S. aureus 17314) | Antibiotic MIC (S. aureus 17314; S. aureus 17314, +¼ MIC (1.6 μM) C12K(KNC12K)2NH2) | Antibiotic MIC (S. aureus 17314; S. aureus 17314, no polymer (None), Table 11) | Antibiotic MIC (S. aureus 17314; S. aureus 17314, no polymer (None), Table 12) | MIC, ¼ + MIC OAK (MRSA 15903; MRSA 15903, with C12K(KNC10K)3NH2 (SEQ ID NO: 10) at ¼ of its MIC) | MIC, ⅓ + MIC OAK (MRSA 15903; MRSA 15903, with C12K(KNC10K)3NH2 (SEQ ID NO: 10) at ⅓ of its MIC)
